According to US12662491B2 (Redona Therapeutics, Inc., priority 2020, dated 2026):

Target: T1, Zcchc11 enzyme (Homo sapiens, UniProt Q5TAX3)
T1 construct: made in house; host or cells: HEK293 cells (Zcchc11); E. coli Rosetta II (LIN28A)
T1 sequence (Q5TAX3 212-1420): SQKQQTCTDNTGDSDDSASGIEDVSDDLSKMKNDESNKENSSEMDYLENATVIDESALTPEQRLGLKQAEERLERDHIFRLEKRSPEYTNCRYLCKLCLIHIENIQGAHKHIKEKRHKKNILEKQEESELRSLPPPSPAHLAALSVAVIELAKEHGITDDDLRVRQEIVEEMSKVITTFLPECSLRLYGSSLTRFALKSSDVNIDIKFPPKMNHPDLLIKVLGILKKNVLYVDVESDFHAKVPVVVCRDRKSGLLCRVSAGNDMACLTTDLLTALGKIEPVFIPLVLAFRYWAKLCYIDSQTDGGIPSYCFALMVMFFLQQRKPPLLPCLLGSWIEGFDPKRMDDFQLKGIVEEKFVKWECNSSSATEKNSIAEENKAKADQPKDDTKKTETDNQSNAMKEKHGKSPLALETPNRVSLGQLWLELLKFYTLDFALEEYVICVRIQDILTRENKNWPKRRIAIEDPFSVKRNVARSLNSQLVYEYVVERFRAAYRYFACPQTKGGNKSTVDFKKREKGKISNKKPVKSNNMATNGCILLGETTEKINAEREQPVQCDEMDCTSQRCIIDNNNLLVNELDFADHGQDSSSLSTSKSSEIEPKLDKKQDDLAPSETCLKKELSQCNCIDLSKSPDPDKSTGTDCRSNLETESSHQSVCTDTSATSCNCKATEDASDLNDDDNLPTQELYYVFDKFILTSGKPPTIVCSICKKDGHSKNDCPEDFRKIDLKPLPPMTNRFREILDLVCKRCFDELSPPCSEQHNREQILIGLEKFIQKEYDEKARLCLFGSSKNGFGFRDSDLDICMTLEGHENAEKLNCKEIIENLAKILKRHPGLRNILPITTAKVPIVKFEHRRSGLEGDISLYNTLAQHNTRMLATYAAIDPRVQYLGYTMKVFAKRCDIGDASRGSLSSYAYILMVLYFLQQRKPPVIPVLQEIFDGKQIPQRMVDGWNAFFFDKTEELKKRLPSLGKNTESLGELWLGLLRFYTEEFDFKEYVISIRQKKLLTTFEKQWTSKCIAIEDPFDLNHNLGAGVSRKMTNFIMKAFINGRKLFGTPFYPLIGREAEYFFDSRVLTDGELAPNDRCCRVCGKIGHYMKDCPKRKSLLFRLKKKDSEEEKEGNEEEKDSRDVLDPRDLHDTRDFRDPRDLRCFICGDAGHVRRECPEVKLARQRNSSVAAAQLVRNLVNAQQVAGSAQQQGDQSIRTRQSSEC
Assay: TUTase assay (Zcchc11 assay, Lin28a-dependent polyuridylation of pre-let-7)
Type: biochemical
Settings: Lin28a-dependent Zcchc11 (Z11) TUTase assay; read-out: Potency Lin28a-dep Z11 IC50
How it was run: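 Human Zcchc11 residues 212-1420 (HEK293-expressed, MBP tag cleaved, C-terminal FLAG) at 0.2 nM, with 10 nM full-length human LIN28A and 2 nM 5′-fluorescein pre-let-7, preincubated with compound 30 min at room temperature. Reaction started with 5 uM UTP plus 4 nM 3′-rhodamine A20 quench probe; fluorescein loss read kinetically, IC50 from initial rates.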

Row | IC50 [µM] | SMILES
1 | 1 to 10 | O=C(O)c1cn(-c2cn[nH]c2)c2cc(N3CCC[C@@H]3COc3ncccc3Cl)c(Cl)cc2c1=O [Example 434, (R)-6-chloro-7-(2-(((3-chloropyridin-2-yl)oxy)methyl)pyrrolidin-1-yl)-4-oxo-1-(1H-pyrazol-4-yl)-1,4-dihydroquinoline-3-carboxylic acid]
2 | ≤ 1 | CN(C)CCn1cc(-n2cc(C(=O)O)c(=O)c3cc(Cl)c(N4CCC[C@@H]4COc4ncccc4Cl)cc32)cn1 [Example 437, (R)-6-chloro-7-(2-(((3-chloropyridin-2-yl)oxy)methyl)pyrrolidin-1-yl)-1-(1-(2-(dimethylamino)ethyl)-1H-pyrazol-4-yl)-4-oxo-1,4-dihydroquinoline-3-carboxylic acid]
3 | ≤ 1 | O=C(O)c1cn(-c2ccc3c(c2)CCOC3)c2cc(N3CCC[C@@H]3COc3ncccc3Cl)c(Cl)cc2c1=O [Example 445, (R)-6-chloro-7-(2-(((3-chloropyridin-2-yl)oxy)methyl)pyrrolidin-1-yl)-1-(isochroman-6-yl)-4-oxo-1,4-dihydroquinoline-3-224 carboxylic acid]
4 | 1 to 10 | O=C(O)c1cn(C2CC2)c2cc(N3CCC[C@@H]3COc3ccccn3)c(F)cc2c1=O [Example 447, (R)-1-cyclopropyl-6-fluoro-4-oxo-7-(2-((pyridin-2-yloxy)methyl)pyrrolidin-1-yl)-1,4-dihydroquinoline-3-carboxylic acid]
5 | 1 to 10 | O=C(O)c1cn(C2CCOCC2)c2cc(N3CCC[C@@H]3COc3ccccn3)c(F)cc2c1=O [Example 450, (R)-6-fluoro-4-oxo-7-(2-((pyridin-2-yloxy)methyl)pyrrolidin-1-yl)-1-(tetrahydro-2H-pyran-4-yl)-1,4-dihydroquinoline-3-carboxylic acid]
6 | 1 to 10 | O=C(O)c1cn(C2COC2)c2cc(N3CCC[C@@H]3COc3ccccn3)c(F)cc2c1=O [Example 451, (R)-6-fluoro-1-(oxetan-3-yl)-4-oxo-7-(2-((pyridin-2-yloxy)methyl)pyrrolidin-1-yl)-1,4-dihydroquinoline-3-carboxylic acid]
7 | 1 to 10 | O=C(O)c1cn(C2CC(O)C2)c2cc(N3CCC[C@@H]3COc3ccccn3)c(F)cc2c1=O (stereo partly drawn) [Example 452, (R)-6-fluoro-1-(3-hydroxycyclo-butyl)-4-oxo-7-(2-((pyridin-2-yloxy)methyl)pyrrolidin-1-yl)-1,4-dihydroquinoline-3-carboxylic acid]

Further lines, the compound ahead of its results:

Row | SMILES | IC50 [µM]
8 | O=C(O)c1cn(-c2ccc(N3CCCC3)nc2)c2cc(N3CCC[C@@H]3COc3ncccc3Cl)c(Cl)cc2c1=O [Example 432, (R)-6-chloro-7-(2-(((3-chloropyridin-2-yl)oxy)methyl)pyrrolidin-1-yl)-4-oxo-1-(6-(pyrrolidin-1-yl)pyridin-3-yl)-1,4-dihydroquinoline-3-carboxylic acid] | ≤ 1
9 | O=C(O)c1cn(-c2nncs2)c2cc(N3CCC[C@@H]3COc3ccccn3)c(F)cc2c1=O [Example 433, (R)-6-fluoro-4-oxo-7-(2-((pyridin-2-yloxy)methyl)pyrrolidin-1-yl)-1-(1,3,4-thiadiazol-2-yl)-1,4-dihydroquinoline-3-carboxylic acid] | 1 to 10
10 | COCCn1cc(-n2cc(C(=O)O)c(=O)c3cc(Cl)c(N4CCC[C@@H]4COc4ncccc4Cl)cc32)cn1 [Example 435, (R)-6-chloro-7-(2-(((3-chloropyridin-2-yl)oxy)methyl)pyrrolidin-1-yl)-1-(1-(2-methoxy-ethyl)-1H-pyrazol-4-yl)-4-oxo-1,4-dihydroquinoline-3-carboxylic acid] | ≤ 1
11 | Cn1cc(-n2cc(C(=O)O)c(=O)c3cc(Cl)c(N4CCC[C@@H]4COc4ncccc4Cl)cc32)cn1 [Example 436, (R)-6-chloro-7-(2-(((3-chloropyridin-2-yl)oxy)methyl)pyrrolidin-1-yl)-1-(1-methyl-1H-pyrazol-4-yl)-4-oxo-1,4-dihydroquinoline-3-carboxylic acid] | ≤ 1
12 | O=C(O)c1cn(-c2ccc3[nH]ccc3c2F)c2cc(N3CCC[C@@H]3COc3ccccn3)c(F)cc2c1=O [Example 438, (R)-6-fluoro-1-(4-fluoro-1H-indol-5-yl)-4-oxo-7-(2-((pyridin-2-yloxy)methyl)pyrrolidin-1-yl)-1,4-dihydroquinoline-3-carboxylic acid] | ≤ 1
13 | O=C(O)c1cn(-c2ccc3[nH]ccc3c2)c2cc(N3CCC[C@@H]3COc3ccccn3)c(F)cc2c1=O [Example 439, (R)-6-fluoro-1-(1H-indol-5-yl)-4-oxo-7-(2-((pyridin-2-yloxy)methyl)pyrrolidin-1-yl)-1,4-dihydroquinoline-3-carboxylic acid] | ≤ 1
14 | O=C(O)c1cn(-c2ccc3[nH]cnc3c2)c2cc(N3CCC[C@@H]3COc3ccccn3)c(F)cc2c1=O [Example 440, (R)-1-(1H-benzo[d]imidazol-5-yl)-6-fluoro-4-oxo-7-(2-((pyridin-2-yloxy)methyl)pyrrolidin-1-yl)-1,4-dihydroquinoline-3-carboxylic acid] | ≤ 1
15 | O=C(O)c1cn(-c2ccc3[nH]c(=O)[nH]c3c2)c2cc(N3CCC[C@@H]3COc3ccccn3)c(F)cc2c1=O [Example 441, (R)-6-fluoro-4-oxo-1-(2-oxo-2,3-dihydro-1H-benzo[d]imidazol-5-yl)-7-(2-((pyridin-2-yloxy)methyl)pyrrolidin-1-yl)-1,4-dihydroquinoline-3-carboxylic acid] | ≤ 1
16 | Cc1cccnc1OC[C@H]1CCCN1c1cc2c(cc1F)c(=O)c(C(=O)O)cn2-c1ccc2[nH]ccc2c1 [Example 442, (R)-6-fluoro-1-(1H-indol-5-yl)-7-(2-(((3-methyl-pyridin-2-yl)oxy)methyl)pyrrolidin-1-yl)-4-oxo-1,4-dihydroquinoline-3-carboxylic acid] | ≤ 1
17 | Cc1cccnc1OC[C@H]1CCCN1c1cc2c(cc1F)c(=O)c(C(=O)O)cn2-c1ccc2[nH]c(=O)[nH]c2c1 [Example 443, (R)-6-fluoro-7-(2-(((3-methylpyridin-2-yl)oxy)methyl)pyrrolidin-1-yl)-4-oxo-1-(2-oxo-2,3-dihydro-1H-benzo[d]imidazol-5-yl)-1,4-dihydroquinoline-3-carboxylic acid] | ≤ 1
18 | Cc1cccnc1OC[C@H]1CCCN1c1cc2c(cc1Cl)c(=O)c(C(=O)O)cn2-c1ccc2[nH]cnc2c1 [Example 444, (R)-1-(1H-benzo[d]imidazol-5-yl)-6-chloro-7-(2-(((3-methylpyridin-2-yl)oxy)methyl)pyrrolidin-1-yl)-4-oxo-1,4-dihydroquinoline-3-carboxylic acid] | ≤ 1
19 | CC1CC1n1cc(C(=O)O)c(=O)c2cc(F)c(N3CCC[C@@H]3COc3ccccn3)cc21 (stereo partly drawn) [Example 446, 6-fluoro-1-(2-methylcyclo-propyl)-4-oxo-7-((R)-2-((pyridin-2-yloxy)methyl)pyrrolidin-1-yl)-1,4-dihydro-quinoline-3-carboxylic acid] | 1 to 10
20 | O=C(O)c1cn(C2CCC2)c2cc(N3CCC[C@@H]3COc3ccccn3)c(F)cc2c1=O [Example 448, (R)-1-cyclobutyl-6-fluoro-4-oxo-7-(2-((pyridin-2-yloxy)methyl)pyrrolidin-1-yl)-1,4-dihydroquinoline-3-carboxylic acid] | 1 to 10
21 | O=C(O)c1cn(C2CCCC2)c2cc(N3CCC[C@@H]3COc3ccccn3)c(F)cc2c1=O [Example 449, (R)-1-cyclopentyl-6-fluoro-4-oxo-7-(2-((pyridin-2-yloxy)methyl)pyrrolidin-1-yl)-1,4-dihydroquinoline-3-carboxylic acid] | 1 to 10
22 | O=C(O)c1cn(C2CC(CO)C2)c2cc(N3CCC[C@@H]3COc3ccccn3)c(F)cc2c1=O (stereo partly drawn) [Example 453, (R)-6-fluoro-1-(3-(hydroxymethyl)cyclobutyl)-4-oxo-7-(2-((pyridin-2-yloxy)methyl)pyrrolidin-1-yl)-1,4-dihydroquinoline-3-carboxylic acid] | 10 to 50
23 | Cc1cccnc1OC[C@H]1CCCN1c1cc2c(cc1Cl)c(=O)c(C(=O)O)cn2C1(CO)CC1 [Example 454, (R)-6-chloro-1-(1-(hydroxymethyl)cyclopropyl)-7-(2-(((3-methyl-pyridin-2-yl)oxy)methyl)pyrrolidin-1-yl)-4-oxo-1,4-dihydroquinoline-3-carboxylic acid] | 1 to 10
